According to PMC11102520, “Design, synthesis, molecular docking study, and α-glucosidase inhibitory evaluation of novel hydrazide–hydrazone derivatives of 3,4-dihydroxyphenylacetic acid” (Scientific Reports, 2024):

Legend:
α-glucosidase = α-glucosidase (Saccharomyces cerevisiae, UniProt P53341); assay: In vitro α-glucosidase inhibition assay (p-nitrophenyl glucopyranoside substrate); assay type: biochemical; details: for inhibition at 500 µM: test compound 0.5mM, read-out: Percent Inhibition (0.5mM)
Description: The reaction was initiated by the addition of 10 μL of 0.5mM substrate(p-nitrophenyl glucopyranoside, Sigma Inc.). […] All experiments were carried out in triplicates (mean ± SEM, n=3).

Sequence of α-glucosidase (P53341 whole entry): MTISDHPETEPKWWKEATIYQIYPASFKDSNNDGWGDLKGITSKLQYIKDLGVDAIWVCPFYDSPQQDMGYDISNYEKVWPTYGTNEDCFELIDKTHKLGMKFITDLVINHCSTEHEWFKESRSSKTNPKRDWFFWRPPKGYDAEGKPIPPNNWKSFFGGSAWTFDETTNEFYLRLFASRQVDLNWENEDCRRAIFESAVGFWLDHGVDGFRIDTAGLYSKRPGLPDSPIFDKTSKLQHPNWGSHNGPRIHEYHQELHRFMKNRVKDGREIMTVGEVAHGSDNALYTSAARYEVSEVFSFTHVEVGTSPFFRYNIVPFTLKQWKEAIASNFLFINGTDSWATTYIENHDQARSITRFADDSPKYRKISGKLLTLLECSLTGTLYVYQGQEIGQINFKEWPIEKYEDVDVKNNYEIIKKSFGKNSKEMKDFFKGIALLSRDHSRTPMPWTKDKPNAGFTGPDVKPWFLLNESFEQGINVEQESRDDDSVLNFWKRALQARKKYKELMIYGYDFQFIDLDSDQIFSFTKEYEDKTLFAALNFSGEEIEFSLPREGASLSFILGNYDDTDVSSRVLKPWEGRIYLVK

Structure (SMILES)	inhibition at 500 µM (α-glucosidase) [%]	melting point [°C]	α-glucosidase inhibitory activity (in words) (α-glucosidase)
O=C(Cc1ccc(O)c(O)c1)NN=Cc1ccccc1O [Compound 1, (3,4-dihydroxyphenyl)-N'-(2-hydroxybenzylidene)acetohydrazide]	86.3	164	–
O=C(Cc1ccc(O)c(O)c1)NN=Cc1ccc(O)cc1 [Compound 2, 2-(3,4-dihydroxyphenyl)-N'-(4-hydroxybenzylidene)acetohydrazide]	90.4	210	–
O=C(Cc1ccc(O)c(O)c1)NN=Cc1ccc(O)c(O)c1 [Compound 3, N'-(3,4-dihydroxybenzylidene)-2-(3,4-dihydroxyphenyl)acetohydrazide]	91.3	212	–
O=C(Cc1ccc(O)c(O)c1)NN=Cc1ccc(O)cc1O [Compound 4, N'-(2,4-dihydroxybenzylidene)-2-(3,4-dihydroxyphenyl)acetohydrazide]	95.7	198	–
O=C(Cc1ccc(O)c(O)c1)NN=Cc1ccc(O)c(O)c1O [Compound 5, 2-(3,4-dihydroxyphenyl)-N'-(2,3,4-trihydroxybenzylidene)acetohydrazide]	96.1	212	–
COc1cc(C=NNC(=O)Cc2ccc(O)c(O)c2)ccc1O [Compound 6, 2-(3,4-dihydroxyphenyl)-N'-(4-hydroxy-3-methoxybenzylidene)acetohydrazide]	86.4	189	–
COc1cccc(C=NNC(=O)Cc2ccc(O)c(O)c2)c1O [Compound 7, 2-(3,4-dihydroxyphenyl)-N'-(2-hydroxy-3-methoxybenzylidene)acetohydrazide]	91.7	204	–
COc1ccc(C=NNC(=O)Cc2ccc(O)c(O)c2)c(O)c1 [Compound 8, 2-(3,4-dihydroxyphenyl)-N'-(2-hydroxy-4-methoxybenzylidene)acetohydrazide]	91	206	–
CCOc1cc(C=NNC(=O)Cc2ccc(O)c(O)c2)ccc1O [Compound 9, 2-(3,4-dihydroxyphenyl)-N'-(3-ethoxy-4-hydroxybenzylidene)acetohydrazide]	83.3	184	–
CCOc1ccc(C=NNC(=O)Cc2ccc(O)c(O)c2)c(O)c1 [Compound 10, 2-(3,4-dihydroxyphenyl)-N'-(4-ethoxy-2-hydroxybenzylidene)acetohydrazide]	81.9	164	–
Cc1ccc(C=NNC(=O)Cc2ccc(O)c(O)c2)cc1O [Compound 11, 2-(3,4-dihydroxyphenyl)-N'-(3-hydroxy-4-methylbenzylidene)acetohydrazide]	77.5	210	–
COc1ccccc1C=NNC(=O)Cc1ccc(O)c(O)c1 [Compound 12, 2-(3,4-dihydroxyphenyl)-N'-(2-methoxybenzylidene)acetohydrazide]	96.7	190 to 193	–
COc1ccc(C=NNC(=O)Cc2ccc(O)c(O)c2)cc1 [Compound 13, 2-(3,4-dihydroxyphenyl)-N'-(4-methoxybenzylidene)acetohydrazide]	95.2	198	–
COc1ccc(C=NNC(=O)Cc2ccc(O)c(O)c2)cc1OC [Compound 14, 2-(3,4-dihydroxyphenyl)-N'-(3,4-dimethoxybenzylidene)acetohydrazide]	92.2	210	–
CN(C)c1ccc(C=NNC(=O)Cc2ccc(O)c(O)c2)cc1 [Compound 15, (3,4-dihydroxyphenyl)-N'-(4-(dimethylamino)benzylidene)acetohydrazide]	92.8	203	–
Cc1ccc(C=NNC(=O)Cc2ccc(O)c(O)c2)cc1 [Compound 16, 2-(3,4-dihydroxyphenyl)-N'-(4-methylbenzylidene)acetohydrazide]	84.1	201	–
O=C(Cc1ccc(O)c(O)c1)NN=Cc1cccc2ccccc12 [Compound 17, 2-(3,4-dihydroxyphenyl)-N'-(naphthalen-1-ylmethylene)acetohydrazide]	72	210	–
O=C(Cc1ccc(O)c(O)c1)NN=Cc1ccccc1Cl [Compound 18, N'-(2-chlorobenzylidene)-2-(3,4-dihydroxyphenyl)acetohydrazide]	85.3	164	–
O=C(Cc1ccc(O)c(O)c1)NN=Cc1ccc(Cl)cc1 [Compound 19, N'-(4-chlorobenzylidene)-2-(3,4-dihydroxyphenyl)acetohydrazide]	79.4	198	–
O=C(Cc1ccc(O)c(O)c1)NN=Cc1cccc(Cl)c1 [Compound 20, N'-(3-chlorobenzylidene)-2-(3,4-dihydroxyphenyl)acetohydrazide]	84.4	196	–
O=C(Cc1ccc(O)c(O)c1)NN=Cc1c(Cl)cccc1Cl [Compound 22, N'-(2,6-dichlorobenzylidene)-2-(3,4-dihydroxyphenyl)acetohydrazide]	–	262	no inhibitory activity
O=C(Cc1ccc(O)c(O)c1)NN=Cc1ccc([N+](=O)[O-])cc1 [Compound 23, 2-(3,4-dihydroxyphenyl)-N'-(4-nitrobenzylidene)acetohydrazide]	80.9	201	–
O=C(Cc1ccc(O)c(O)c1)NN=Cc1ccccc1[N+](=O)[O-] [Compound 24, 2-(3,4-dihydroxyphenyl)-N'-(2-nitrobenzylidene)acetohydrazide]	82.7	204	–
O=C(Cc1ccc(O)c(O)c1)NN=Cc1cccc([N+](=O)[O-])c1 [Compound 25, 2-(3,4-dihydroxyphenyl)-N'-(3-nitrobenzylidene)acetohydrazide]	78.2	206	–
O=Cc1ccc(C=NNC(=O)Cc2ccc(O)c(O)c2)cc1 [Compound 26, 2-(3,4-dihydroxyphenyl)-N'-(4-formylbenzylidene)acetohydrazide]	–	204	–
O=C(Cc1ccc(O)c(O)c1)NN=Cc1ccco1 [Compound 27, 2-(3,4-dihydroxyphenyl)-N'-(furan-2-ylmethylene)acetohydrazide]	–	156	–
CSc1ccc(C=NNC(=O)Cc2ccc(O)c(O)c2)cc1 [Compound 28, 2-(3,4-dihydroxyphenyl)-N'-(4-(methylthio)benzylidene)acetohydrazide]	–	198	–
